Reference: patent publication US9440982B2 (Eolas Therapeutics, Inc., priority 2012, dated 2016)

What was measured:
OX1 = target: T1, OX1 (Homo sapiens, UniProt O43613); assay: Orexin receptor cell-based functional assay, [Ca2+]i by FLIPR, CHO-OX1 cells; conditions: CHO-OX1 cells, [Ca2+]i by FLIPR, antagonist dose-range 0.1 nM-10 μM, EC90 of OXA; read-out: OX1
T1 construct: expressed in transfected cells; host or cells: CHO (CHO-OX1, kept under selection antibiotic)
T1 sequence (O43613 1-425): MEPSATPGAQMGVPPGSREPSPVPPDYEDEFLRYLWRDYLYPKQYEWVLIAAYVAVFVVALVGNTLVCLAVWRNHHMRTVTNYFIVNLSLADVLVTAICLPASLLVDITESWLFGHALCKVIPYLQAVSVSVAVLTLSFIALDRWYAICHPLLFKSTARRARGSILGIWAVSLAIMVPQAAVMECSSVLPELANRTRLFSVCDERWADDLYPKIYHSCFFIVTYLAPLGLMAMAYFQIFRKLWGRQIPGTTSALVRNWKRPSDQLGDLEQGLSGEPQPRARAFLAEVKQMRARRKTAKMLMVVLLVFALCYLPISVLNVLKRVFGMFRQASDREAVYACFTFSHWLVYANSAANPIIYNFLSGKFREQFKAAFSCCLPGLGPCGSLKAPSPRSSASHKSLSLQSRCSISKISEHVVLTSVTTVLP
Outline: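 Antagonist mode FLIPR calcium read in CHO-OX1 and CHO-OX2 lines. Test compounds, dosed 0.1 nM-10 μM, preincubated 30 min after 37° C dye loading with 2.5 mM probenecid (calcium4 for 30 min or calcium6 for 2 h).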

CYP3A4 = target: T2, CYP3A4 (Homo sapiens, UniProt P08684); assay: Cytochrome P450 inhibition assay (midazolam hydroxylation); type: in vitro ADME; conditions: human, human liver microsomes, probe midazolam (hydroxylation to 1′-hydroxymidazolam), 10 μM test compound, midazolam at approximately its Km
T2 construct: pre-incubated with human liver microsomes and NADPH; from tissue; host or cells: human liver microsomes
Outline: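 Percent inhibition of midazolam 1′-hydroxylation by 10 μM compound was measured, midazolam dosed at about Km. Time-dependent inhibition was probed by a 30 min preincubation of compound with human liver microsomes and NADPH ahead of substrate, compared against samples without preincubation.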

T2 sequence (P08684 whole entry): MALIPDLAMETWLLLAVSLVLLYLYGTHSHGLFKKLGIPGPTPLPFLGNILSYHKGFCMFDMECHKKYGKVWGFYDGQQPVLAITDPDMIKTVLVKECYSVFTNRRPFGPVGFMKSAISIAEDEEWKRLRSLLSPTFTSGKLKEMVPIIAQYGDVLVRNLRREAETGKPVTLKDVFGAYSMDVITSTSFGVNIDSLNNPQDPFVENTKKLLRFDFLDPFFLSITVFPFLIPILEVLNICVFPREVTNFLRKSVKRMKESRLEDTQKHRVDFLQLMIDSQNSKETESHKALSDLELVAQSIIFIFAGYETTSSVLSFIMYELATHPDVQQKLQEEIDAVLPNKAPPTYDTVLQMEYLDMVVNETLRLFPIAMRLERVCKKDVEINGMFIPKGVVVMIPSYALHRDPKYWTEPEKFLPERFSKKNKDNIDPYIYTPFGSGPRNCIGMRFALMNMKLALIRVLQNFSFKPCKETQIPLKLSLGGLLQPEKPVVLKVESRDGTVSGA

## Cc1ccc(-c2ccccn2)c(C(=O)N2CCC[C@@H](C)[C@H]2CNc2ccc(C#N)cn2)c1 [Example A60, 6-((((2S,3R)-3-Methyl-1-(5-methyl-2-(pyridin-2-yl)benzoyl)piperidin-2-yl)methyl)amino)nicotinonitrile]
OX1
  IC50: 490 nM
CYP3A4
  inhibition at 10 µM: 69%

## Cc1ccc(-n2nccn2)c(C(=O)N2CCC[C@@H](C)[C@H]2CNc2ccc(C)nn2)c1 [Example A146, ((2S,3R)-3-Methyl-2-(((6-methylpyridazin-3-yl)amino)methyl)piperidin-1-yl)(5-methyl-2-(2H-1,2,3-triazol-2-yl)phenyl)methanone]
OX1
  IC50: > 1000 nM
CYP3A4
  inhibition at 10 µM: 29%

## Cc1ccc(-n2ncc(C)n2)c(C(=O)N2CCC[C@@H](C)[C@H]2CNc2ccc(C(F)(F)F)cn2)c1 [Example A112, ((2S,3R)-3-Methyl-2-(((5-(trifluoromethyl)pyridin-2-yl)amino)methyl)piperidin-1-yl)(5-methyl-2-(4-methyl-2H-1,2,3-triazol-2-yl)phenyl)methanone]
OX1
  IC50: 2 nM
CYP3A4
  inhibition at 10 µM: 84%

## Cc1ccc(-n2ncc(C)n2)c(C(=O)N2CCC[C@@H](C)[C@H]2CNc2nnc(C(F)(F)F)s2)c1 [Example A135, ((2S,3R)-3-Methyl-2-(((5-(trifluoromethyl)-1,3,4-thiadiazol-2-yl)amino)methyl)piperidin-1-yl)(5-methyl-2-(4-methyl-2H-1,2,3-triazol-2-yl)phenyl)methanone]
OX1
  IC50: 21 nM
CYP3A4
  inhibition at 10 µM: 80%

## C[C@@H]1CCCN(C(=O)c2c(F)cccc2-n2nccn2)[C@@H]1CNc1ccc(Cl)cn1 [Example A261, ((2S,3R)-2-(((5-Chloropyridin-2-yl)amino)methyl)-3-methylpiperidin-1-yl)(2-fluoro-6-(2H-1,2,3-triazol-2-yl)phenyl)methanone]
OX1
  IC50: 5 nM
CYP3A4
  inhibition at 10 µM: 77%

## C[C@@H]1CCCN(C(=O)c2cc(C#N)ccc2-n2nccn2)[C@@H]1CNc1ncc(C(F)(F)F)cn1 [Example A322, 3-((2S,3R)-3-Methyl-2-(((5-(trifluoromethyl)pyrimidin-2-yl)amino)methyl)piperidine-1-carbonyl)-4-(2H-1,2,3-triazol-2-yl)benzonitrile]
OX1
  IC50: 11 nM
CYP3A4
  inhibition at 10 µM: 40%

## Cc1ccc(-c2nccn2C)c(C(=O)N2CCC[C@@H](C)[C@H]2CNc2ccc(C(F)(F)F)cn2)c1 [Example A20, ((2S,3R)-3-Methyl-2-(((5-(trifluoromethyl)pyridin-2-yl)amino)methyl)piperidin-1-yl)(5-methyl-2-(1-methyl-1H-imidazol-2-yl)phenyl)methanone]
OX1
  IC50: 37 nM
CYP3A4
  inhibition at 10 µM: 83%

## Cc1ccc(-c2ccnc(C)c2)c(C(=O)N2CCC[C@@H](C)[C@H]2CNc2nc3cc(Cl)ccc3o2)c1 [Example A37, ((2S,3R)-2-(((5-Chlorobenzo[d]oxazol-2-yl)amino)methyl)-3-methylpiperidin-1-yl)(5-methyl-2-(2-methylpyridin-4-yl)phenyl)methanone]
OX1
  IC50: 4 nM
CYP3A4
  inhibition at 10 µM: 96%

## Cc1ccc(-c2cnn(C(C)C)c2)c(C(=O)N2CCC[C@@H](C)[C@H]2CNc2ccc(C(F)(F)F)cn2)c1 [Example A111, (2-(1-Isopropyl-1H-pyrazol-4-yl)-5-methylphenyl)((2S,3R)-3-methyl-2-(((5-(trifluoromethyl)pyridin-2-yl)amino)methyl)piperidin-1-yl)methanone]
OX1
  IC50: 17 nM
CYP3A4
  inhibition at 10 µM: 96%

## C[C@@H]1CCCN(C(=O)c2ccccc2-n2nccn2)[C@@H]1CNc1nc2ccccc2o1 [Example A218, (2-(2H-1,2,3-Triazol-2-yl)phenyl)((2S,3R)-2-((benzo[d]oxazol-2-ylamino)methyl)-3-methylpiperidin-1-yl)methanone]
OX1
  IC50: 130 nM
CYP3A4
  inhibition at 10 µM: 75%

## Cc1ccc(-n2nccn2)c(C(=O)N2CCC[C@@H](C)[C@H]2CNc2ncccc2C)c1 [Example A99, ((2S,3R)-3-Methyl-2-(((3-methylpyridin-2-yl)amino)methyl)piperidin-1-yl)(5-methyl-2-(2H-1,2,3-triazol-2-yl)phenyl)methanone]
OX1
  IC50: 340 nM
CYP3A4
  inhibition at 10 µM: 52%

## Cc1ccc(-n2cccn2)c(C(=O)N2CCC[C@@H](C)[C@H]2CNc2ncc(C(F)(F)F)cn2)n1 [Example A166, ((2S,3R)-3-Methyl-2-(((5-(trifluoromethyl)pyrimidin-2-yl)amino)methyl)piperidin-1-yl)(6-methyl-3-(1H-pyrazol-1-yl)pyridin-2-yl)methanone]
OX1
  IC50: 8 nM
CYP3A4
  inhibition at 10 µM: 44%

## Cc1ccc(-n2cnc(C)n2)c(C(=O)N2CCC[C@@H](C)[C@H]2CNc2nc3cc(Cl)ccc3o2)c1 [Example A29, ((2S,3R)-2-(((5-Chlorobenzo[d]oxazol-2-yl)amino)methyl)-3-methylpiperidin-1-yl)(5-methyl-2-(3-methyl-1H-1,2,4-triazol-1-yl)phenyl)methanone]
OX1
  IC50: 87 nM
CYP3A4
  inhibition at 10 µM: 91%

## Cc1ccc(-n2nccn2)c(C(=O)N2CCC[C@@H](C)[C@H]2CNc2ncc(C(F)(F)F)cc2F)n1 [Example A188, ((2S,3R)-2-(((3-Fluoro-5-(trifluoromethyl)pyridin-2-yl)amino)methyl)-3-methylpiperidin-1-yl)(6-methyl-3-(2H-1,2,3-triazol-2-yl)pyridin-2-yl)methanone]
OX1
  IC50: 1 nM
CYP3A4
  inhibition at 10 µM: 59%

## Cc1ccc(-c2ccccn2)c(C(=O)N2CCC[C@@H](C)[C@H]2CNc2ccc(Cl)cn2)n1 [Example A169, ((2S,3R)-2-(((5-Chloropyridin-2-yl)amino)methyl)-3-methylpiperidin-1-yl)(6′-methyl-[2,3′-bipyridin]-2′-yl)methanone]
OX1
  IC50: 8 nM
CYP3A4
  inhibition at 10 µM: 60%

## Cc1ccc(-n2nccn2)c(C(=O)N2CCC[C@@H](C)[C@H]2CNc2ccc(C(F)(F)F)cn2)c1F [Example A318, (2-Fluoro-3-methyl-6-(2H-1,2,3-triazol-2-yl)phenyl)((2S,3R)-3-methyl-2-(((5-(trifluoromethyl)pyridin-2-yl)amino)methyl)piperidin-1-yl)methanone]
OX1
  IC50: 7 nM
CYP3A4
  inhibition at 10 µM: 79%

## Cc1ccc(-c2ncccn2)c(C(=O)N2CCC[C@@H](C)[C@H]2CNc2ncc(F)cc2F)c1 [Example A182, ((2S,3R)-2-(((3,5-Difluoropyridin-2-yl)amino)methyl)-3-methylpiperidin-1-yl)(5-methyl-2-(pyrimidin-2-yl)phenyl)methanone]
OX1
  IC50: 140 nM
CYP3A4
  inhibition at 10 µM: 65%

## Cc1ccc(-c2ccccn2)c(C(=O)N2CCC[C@@H](C)[C@H]2CNc2ncc(F)cn2)c1 [Example A179, ((2S,3R)-2-(((5-Fluoropyrimidin-2-yl)amino)methyl)-3-methylpiperidin-1-yl)(5-methyl-2-(pyridin-2-yl)phenyl)methanone]
OX1
  IC50: 490 nM
CYP3A4
  inhibition at 10 µM: 67%

## C[C@@H]1CCCN(C(=O)c2ccccc2-c2ncccn2)[C@@H]1CNc1ccc(C(F)(F)F)cn1 [Example A316, ((2S,3R)-3-Methyl-2-(((5-(trifluoromethyl)pyridin-2-yl)amino)methyl)piperidin-1-yl)(2-(pyrimidin-2-yl)phenyl)methanone]
OX1
  IC50: 4 nM
CYP3A4
  inhibition at 10 µM: 63%

## C[C@@H]1CCCN(C(=O)c2ccccc2-n2nccn2)[C@@H]1CNc1nc2cc(Cl)ccc2o1 [Example A219, (2-(2H-1,2,3-Triazol-2-yl)phenyl)((2S,3R)-2-(((5-chlorobenzo[d]oxazol-2-yl)amino)methyl)-3-methylpiperidin-1-yl)methanone]
OX1
  IC50: 2600 nM
CYP3A4
  inhibition at 10 µM: 84%

## Cc1ccc(-n2cc(C)cn2)c(C(=O)N2CCC[C@@H](C)[C@H]2CNc2ccc(C(F)(F)F)cn2)c1 [Example A107, ((2S,3R)-3-Methyl-2-(((5-(trifluoromethyl)pyridin-2-yl)amino)methyl)piperidin-1-yl)(5-methyl-2-(4-methyl-1H-pyrazol-1-yl)phenyl)methanone]
OX1
  IC50: 4 nM
CYP3A4
  inhibition at 10 µM: 91%

## Cc1ccc(-n2nccn2)c(C(=O)N2CCC[C@@H](C)[C@H]2CNc2ccc(Cl)cn2)n1 [Example A178, ((2S,3R)-2-(((5-Chloropyridin-2-yl)amino)methyl)-3-methylpiperidin-1-yl)(6-methyl-3-(2H-1,2,3-triazol-2-yl)pyridin-2-yl)methanone]
CYP3A4
  inhibition at 10 µM: 64%

## Cc1ccc(-c2ccc(F)cc2)c(C(=O)N2CCC[C@@H](C)[C@H]2CNc2ccc(C(F)(F)F)cn2)n1 [Example A73, (3-(4-Fluorophenyl)-6-methylpyridin-2-yl)((2S,3R)-3-methyl-2-(((5-(trifluoromethyl)pyridin-2-yl)amino)methyl)piperidin-1-yl)methanone]
CYP3A4
  inhibition at 10 µM: 76%

## Cc1ccc(-c2c(C)noc2C)c(C(=O)N2CCC[C@@H](C)[C@H]2CNc2ccc(C(F)(F)F)cn2)c1 [Example A7, (2-(3,5-Dimethylisoxazol-4-yl)-5-methylphenyl)((2S,3R)-3-methyl-2-(((5-(trifluoromethyl)pyridin-2-yl)amino)methyl)piperidin-1-yl)methanone]
CYP3A4
  inhibition at 10 µM: 93%
